Here are results for one compound from patent publication US20080064053A1, “Genotoxicity Testing” (priority 2003, published 2008).

The subject of data set [1] is RAD54 promoter-yEGFP reporter. In words: Fluorescence assay with intact yeast cells in cuvettes, RAD54-GFP reporter plasmid pWDH445 and rearranged derivatives. The data set is classed as cell-based, Saccharomyces cerevisiae. The following applies: 0.005% MMS, 15 hours. Here is the method: Starter cultures were initiated by inoculating 1.5 ml of F1 medium (plus appropriate nutritional supplements and 2% glucose) in sterile 15 ml polythene centrifuge tubes with small portions of colonies, picked by inoculating loop from stock plates. These starter cultures were grown for up to 24 hours at 30° C. with shaking (at 120 rpm) and were used as the source of inoculum for the assay cultures. Cells were inoculated into 1.5 ml F1 cultures in 15 ml polythene centrifuge tubes to give an initial OD600 nm of ˜0.1 (typically a 10-15 μl inoculum per 1.5 ml culture). The lids of the tubes were left one-quarter unscrewed, but held in place by masking tape, to ensure maximum oxygenation for GFP maturation. Half of the tubes were treated with 0.005% methyl methanesulphonate (MMS, methanesulphonic acid methyl ester) and half left as unchallenged controls. MMS was purchased as a liquid and this stock solution was taken to be 100%. […] For the measurement of intact yeast cell fluorescence of cells grown in YPD or SD, the cells were washed twice in sterile water to remove traces of autofluorescent medium and resuspended in 1.5 ml of sterile water. […] 4-window cuvettes were necessary since measurement of fluorescence emission is performed perpendicular to the path of excitation light.
Fluorescence measurements were performed with a Perkin-Elmer LS50B Fluorescence Spectrometer (Perkin-Elmer Ltd., Beaconsfield, UK). […] For the yEGFP expressing reporter, the excitation and emission wavelengths were set to 490 nm and 518 nm respectively (due to the altered fluorescence characteristics of yEGFP), with 5 nm slit widths. To account for differences in cell numbers between YPD or SD assay cultures, the OD600 nm was recorded for each cuvette. Similarly, in order to measure protein extraction efficiency, light absorption at 280 nm (OD280 nm) was measured for crude cell extracts. […] The y-axis on uncorrected fluorescence scans gives raw data in the form of machine defined fluorescence intensity (“INT”) units. […]

Data set [2] relates to yeast strain GenT01 (FF18984). The data set is described as follows: GreenScreen assay (GSA), cytotoxicity: final cell density by absorbance. The following applies: GenT01 yeast, overnight at 25° C. As for the experimental part: The following standard protocol was followed. A 1 mM stock of the test chemical was prepared in 2% v/v aqueous DMSO, and used to make 2 identical dilution series across the microplate and a ‘control’ (see below). To achieve this, 150 microlitres of the test chemical solution were put into 2 microplate wells. Each sample was serially diluted by transferring 75 microlitres into 75 microlitres of 2% DMSO, mixing, and then taking 75 microlitres out and into the next well. This produced 9 serial dilutions of 75 microlitres each.
75 microlitres of the yeast suspension were added to each well of the diluted chemical: GenT01 to one series and GenC01 to the second, and to appropriate standards and controls. After the plates were filled, they were sealed using either a gas permeable membrane (Breath-easy, Diversified Biotech, USA) or a plastic lid, and then incubated without shaking, overnight at 25° C.
Following overnight incubation, fluorescence and absorbance data were collected from the microplates. […] Absorbance was measured through a 620 nm filter in both instruments. […] Fluorescence data were divided by absorbance data to give ‘brightness units’, the measure of average GFP induction per cell. […] In this way, one can distinguish between a small number of highly fluorescent cells and a large number of weakly fluorescent cells. In order to correct for induced cellular autofluorescence and intrinsic compound fluorescence, the brightness values for the GenC01 strain were subtracted from those of GenT01. This makes visual assessment of the data more reliable.
The cytotoxicity threshold is set at 80% of the cell density reached by the untreated control cells.
Table 12 lists chemicals/solvents that are often used with test samples, to promote dissolution etc. […] If these chemicals are used to dissolve compound stock solutions, they should also be included in the diluent used to make the compound dilution series. […] Interference of DMSO, a free radical scavenger, in the recombinogenic properties of several oxidising agents has previously been reported.

Another data set concerns SOS umuC. The following applies: cited from earlier work.
Data set [3] has as its system RNR2 regulatory element-GFP reporter. The data set is described as follows: RNR2-GFP reporter assay (pGenRNR2), cuvette and microplate. The data set is classed as cell-based, Saccharomyces cerevisiae. The following applies: yeast test strain transformed with pGenRNR2. An excerpt: (§1) In addition to the RAD54 vectors described in the previous Examples, the inventors constructed an FF18984 reporter strain containing a replicative plasmid harbouring an RNR regulatory element. The vectors pGenRNR2 or pGenRNR3 are shown in FIGS. 24 and 25, respectively, and contain the upstream non-coding DNA sequence of the RNR2 gene or RNR3 gene fused to the yeast-enhanced Aequorea victoria GFP gene. A control FF18984 strain containing an identical plasmid except that 2 base pairs have been removed at the start of the GFP gene, such that no GFP is made, was also examined.
In order to test the brightness of the reporter for RNR2 constructs, similar methodology was used as for RAD54 constructs, as described in the previous Examples, but using instead pGENRNR2.

A further data set concerns SOS lux. The following applies: cited from earlier work.
The subject of data set [4] is RAD54 promoter-GFP reporter (pGen001). The following applies: for GSA genotoxicity result: GenT01 yeast, overnight at 25° C., 2% DMSO diluent, no S9.
The subject of data set [5] is RNR3 regulatory element-GFP reporter. The data set is described as follows: RNR3-GFP reporter microplate assay (pGenRNR3). The data set is classed as cell-based, Saccharomyces cerevisiae. The following applies: yeast test strain transformed with pGenRNR3.
Description: as §1
In order to test the brightness of the reporter for RNR3 constructs, similar methodology was used as for RAD54 constructs, as described in the previous Examples, but using instead pGENRNR3.

Several values for one entry are separate records, joined by “and”; a condition that tells them apart may be missing. Identical values can stand only once. Like-named read-outs stand apart in the source and are kept apart here.

Take `COS(C)(=O)=O` [MMS, methyl methanesulfonate]: the induction ratio is 7.72 and 5.5 in data set [1] (FF18984 cells bearing normal pWDH445); 5.2 in data set [1] (FF18984 cells re-transformed with modified (rearranged) plasmid); 3.27 in data set [1] (original bright variant FF18984 cells carrying pWDH445). Further, in data set [2], the GSA cytotoxicity result is “strongly cytotoxic”. For the same compound, in the data set on SOS umuC, the “SOS UMUC ASSAY (M), LEC” value is 0.00015 M. The “brightness/fluorescence of GFP reporter” value in data set [3] is “induced”. Besides, the “SOS LUX ASSAY (M), LEC” value in the data set with SOS lux was 7.3e-05 M. Moreover, the values for the GSA genotoxicity result in data set [4] and in data set [4] (listed as Methyl methanesulfonate) were “induced” and “genotoxic”, respectively. Moreover, the “GSA (M), lowest effective concentration (LEC)” value in data set [4] (S9 −) stood at 9.3e-06 M. Besides, the “fluorescence induction by the reporter” value in data set [5] is given as “increases with increasing concentration”.
